Here are results for one compound from patent US20220387370A1, “METHODS OF REDUCING NEUROLOGICAL DAMAGE IN WILSON DISEASE PATIENTS” (priority 2019, published 2022).

“Also recorded” adds a separate entry of the source.

In data set [1] the test system is U87MG cells. As to conditions: U87MG cells subjected to respirometry (FIG. 6A), non-toxic Cu-albumin setting. An excerpt:
(§1) Afterwards, cells were trypsinized and counted.

For data set [2], the system named is PBCEC monolayers. Description: Copper in the basolateral compartment of the Transwell PBCEC model (ICP-MS/MS). It counts as cell-based, porcine. As to conditions: 250 μM copper and 83.3 μM albumin, 250 μM chelator, after 48 h. An excerpt: For transepithelial resistance (TEER) experiments (Srinivasan, B., et al., J Lab Autom, 2015. 20(2): p. 107-26), cryopreserved primary porcine brain capillary endothelial cells (PBCECs) were thawed and seeded either on rat tail collagen-coated 96-well plates for cytotoxicity testing using the Neutral red assay (Repetto, G., A. del Peso, and J. L. Zurita, Nat Protoc, 2008. 3(7): p. 1125-31) or Transwell® inserts (area: 1.12 cm^2, pore size: 0.4 μm: Corning, N.Y., USA) for barrier integrity studies. Cells were cultured for 48 hours in Earle's Medium 199 supplemented with 10% FCS, 50 U penicillin/mL, 50 μg/mL streptomycin, 100 μg/mL gentamycin and 0.7 mM I-glutamine and maintained at 37° C. in a humidified atmosphere with 5% CO2. […] TEER and capacitance values were continuously monitored over 48 h using a CellZscope device (nanoAnalytics, Münster, Germany). Only PBCEC monolayers with initial TEER values >600Ωcm^2 and capacitance values between 0.45 and 0.6 μF/cm^2 were used for permeability studies (Bornhorst, J., et al., J Biol Chem, 2012. 287(21): p. 17140-51). The barrier integrity was calculated by normalizing the TEER values to the respective start values.

Another data set concerns SHSY5Y cells. Description: Cellular copper content (ICP-OES), SHSY5Y. The class given is cell-based, human. As to conditions: 750 μM copper, 250 μM albumin, 750 μM chelator, vs Cu-albumin alone.
Source text: as §1

Data set [3] has as its system PBCEC monolayers. The experiment in a line: Electron microscopy of tight junctions of PBCECs. It counts as cell-based, porcine. To be noted: copper-treated PBCECs, electron micrographs. Here is the method: Electron microscopy of PBCECS grown on Transwell® inserts was performed as previously described (Ye, D., K. A. Dawson, and I. Lynch, Analyst, 2015. 140(1): p. 83-97) with minor modifications. Briefly, after fixation with 2.5% glutaraldehyde, cell monolayers were post-fixed with 1% osmium tetroxide for 30 min and dehydrated by ethanol.

The subject of data set [4] is EA.hy926 cells. Description: High-resolution respirometry, EA.hy926. The class given is cell-based, human. As to conditions: EA.hy926, Cu-albumin-treated, vs Cu-albumin alone. How it is done: Oxygen consumption was assessed by high-resolution respirometry (HRR) using the Oxygraph-2k and DatLab 7.0 (Oroboros Instruments GmbH, Innsbruck, Austria) as described previously (Pesta, D. and E. Gnaiger, Methods Mol Biol, 2012. 810: p. 25-58). Per chamber, 1.5-2×10^6 living cells were supplied in 2 mL of MiR05 buffer (0.5 mM EGTA, 3 mM MgCl2, 60 mM lactobionic acid, 20 mM taurine, 10 mM KH2PO4, 20 mM HEPES, 110 mM sucrose, 1 g/L albumin, pH 7.1) and routine respiration was measured. Addition of 2.5 μM oligomycin (inhibitor of the FOF1-ATPase) enabled the measurement of leak respiration and stepwise addition of CCCP (1 μL steps from 1 mM stock solution) allowed the determination of the maximum oxygen flux and thereby the capacity of the electron transport system (ETS). The oxygen flux was baseline-corrected for non-mitochondrial oxygen consuming processes (ROX) by the addition of 2.5 μM of the complex III-inhibitor antimycin A.

Data set [5] concerns HepG2, EA.hy926, U87MG and SHSY5Y cells. Description: Toxicity of the chelator itself in a copper-free setting, CellTiter-Glo. As to conditions: without external Cu-albumin addition. How it is done:
(§2) SHSY5Y (human neuroblastoma), U87MG (human astrocytoma), EA.hy926 (human endothelium) and HepG2 (human hepatocellular carcinoma) cells were from ATCC (Wesel, Germany) and were cultured in Dulbecco's Modified Eagle Medium (DMEM) supplemented with 10% FCS (Biochrom, Berlin, Germany) and 1% antibiotic-antimycotic (Life Technologies, Carlsbad, USA). All cells were maintained at 37° C. in a humidified atmosphere with 5% CO2.
For orientation: Cellular ATP, detected with luciferase, serves as a proxy for viable cell number.

The test system of another data set is EA.hy926 and U87MG cells. Description: Electron microscopy of mitochondrial structure. The class given is cell-based, human. To be noted: electron micrographs, co-treatment with chelator. An excerpt: Electron microscopy of cells was done as previously described ([…]., et al., Cell Mol Gastroenterol Hepatol, 2018. 7(3): p. 571-596) on a 1200EX electron microscope (JEOL, […], Japan) at 60 kv. Pictures were taken with a […] digital camera (Olympus, Hamburg, Germany) and processed by the iTEM software package (analySIS FIVE, Olympus, Hamburg, Germany).

A further data set has as its target Cu-albumin (Bos taurus, UniProt P02769). Here is the method: EPR spectra were recorded at 77 K using an ECS106 spectrometer (Brucker BioSpin, Karlsruhe, Germany) operating in X-band at about 9.5 GHz.
The test system of data set [6] is HepG2 cells. Description: Trypan blue-assessed cell viability under Cu-albumin, HepG2. The class given is cell-based, human. To be noted: 750 μM copper, 250 μM albumin, 750 μM chelator.
Source text: as §1

The subject of data set [7] is U87MG cells. As to conditions: 750 μM chelator. How it is done: as §2
Another data set deals with patients with WD. To be noted: cited from earlier work.
Data set [8] concerns HepG2 cells. The experiment in a line: Cellular copper content (ICP-OES), HepG2. It counts as cell-based, human. To be noted: 750 μM copper, 250 μM albumin, 750 μM chelator, vs Cu-albumin alone.
Source text: as §1

The test system of data set [9] is EA.hy926 cells. The experiment in a line: Cu-albumin cell toxicity, CellTiter-Glo, EA.hy926. The class given is cell-based, human. How it is done: as §2
In data set [10] the test system is EA.hy926 cells. The experiment in a line: Cellular copper content (ICP-OES), EA.hy926. The class given is cell-based, human.
Source text: as §1

Chain of Cu-albumin (P02769 25-607): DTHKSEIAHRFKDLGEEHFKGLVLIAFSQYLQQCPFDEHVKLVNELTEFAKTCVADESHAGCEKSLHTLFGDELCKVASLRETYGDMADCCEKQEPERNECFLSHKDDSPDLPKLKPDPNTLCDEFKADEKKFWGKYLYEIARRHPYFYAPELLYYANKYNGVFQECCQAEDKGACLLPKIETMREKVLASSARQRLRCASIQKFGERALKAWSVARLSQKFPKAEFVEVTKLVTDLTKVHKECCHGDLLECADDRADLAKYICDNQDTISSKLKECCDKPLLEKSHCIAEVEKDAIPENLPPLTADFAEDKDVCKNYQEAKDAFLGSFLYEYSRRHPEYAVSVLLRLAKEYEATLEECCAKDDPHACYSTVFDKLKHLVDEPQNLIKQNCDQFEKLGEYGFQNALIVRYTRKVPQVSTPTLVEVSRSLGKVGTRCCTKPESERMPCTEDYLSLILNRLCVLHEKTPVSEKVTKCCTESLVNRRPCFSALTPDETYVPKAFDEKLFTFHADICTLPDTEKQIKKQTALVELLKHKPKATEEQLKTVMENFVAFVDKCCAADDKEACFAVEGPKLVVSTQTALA

Turning to `C[N+](C)(C)CCO.C[N+](C)(C)CCO.[SH-].[SH-].[S]=[Mo]=[S]` [ALXN1840, bis-choline tetrathiomolybdate], the cellular copper content result is recorded as “significantly lower” in the data set on U87MG cells [1]; “this effect was not present” in the data set on SHSY5Y cells; “highly similar cellular copper contents; also recorded: this effect was not present” in the data set with HepG2 cells [8]; “significantly decreased the copper content; also recorded: (significantly) lower copper content” in the data set with EA.hy926 cells [10] (EA.hy926, 750 μM copper, 250 μM albumin, 750 μM chelator, vs Cu-albumin alone); “significantly lower” with EA.hy926 cells [10] (EA.hy926 cells subjected to respirometry (FIG. 6A), non-toxic Cu-albumin setting). The “copper in the basolateral compartment (copper influx)” value in the data set on PBCEC monolayers [2] was “fully avoided; also recorded: significantly lower amount of copper”. For the same compound, the “loss of electron-dense protein complexes at the cell-cell borders” value with PBCEC monolayers [3] was “can be prevented”. Moreover, in the data set with EA.hy926 cells [4], the “mitochondrial respiration (ETS)” value was “significantly increased”. Further, in the data set with EA.hy926 cells [4], the “respiratory control ratio E/L (ETS to leak respiration)” value is given as “significantly increased”. Also, the “CellTiterGlo-assessed cell viability with chelator alone” value in data set [5] is listed as “becomes toxic at elevated concentrations; also recorded: dose-dependent reduction”. Also, the “Cu-albumin-induced alterations of mitochondrial structure” value with EA.hy926 and U87MG cells is on record as “partially avoided these structural abnormalities; also recorded: partially reversed”. The “drop of signal intensity of EPR-active cupric copper” value at Cu-albumin (TPC versus Cu-albumin) was “around 50%”. In addition, at Cu-albumin (albumin, copper and ALXN1840), the “copper redox status in the tripartite complex (EPR)” value is on record as “partial reduction of copper”. In addition, the “Trypan blue-assessed cell viability / copper-related cell toxicity” value in the data set on HepG2 cells [6] is listed as “rescued HepG2 cells”. Besides, the “CellTiterGlo-assessed cell viability / Cu-albumin toxicity” value was “protected” with U87MG cells [7]; “protected” in the data set on EA.hy926 cells [9] (EA.hy926, 750 μM chelator); “partially rescued” in the data set on EA.hy926 cells [9] (EA.hy926, low dose of chelator (250 μM)). The “reduction of mean serum non-ceruloplasmin-bound Cu (NCC)” value in the data set on patients with WD (at Week 24 compared with baseline, 28 patients with WD) was 72%. The “patients with reversible liver function test elevations” value in the data set on patients with WD (mild to moderate, asymptomatic, normalized with dose reduction or interruption) is listed as 39%. In addition, in the data set with patients with WD (most AEs mild (Grade 1) to moderate (Grade 2)), the tolerability entry is on record as “generally well-tolerated”. The paradoxical neurological worsening result with patients with WD (upon treatment initiation) is “No paradoxical neurological worsening was observed”.
